Where a SMILES comes first, the peptide text is derived from it. A value given as a limit tells only on which side of the number the result lay.

The first data set concerns HepG2 cells. Put plainly: HepG2 cell viability (CCK-8). The format is cell-based, human. To be noted: at certain concentrations within 100-400 μg/mL, 24 h, p < 0.05. The procedure: HepG2 human hepatocellular carcinoma cells utilized in this study were generously provided by Prof. Fuliang Hu from Zhejiang University’s College of Animal Science (China). Cellular maintenance involved cultivation in HyClone’s high-glucose DMEM medium supplemented with 10% heat-inactivated fetal bovine serum (Gibco, Waltham, MA, USA) and antibiotic agents (100 U/mL penicillin plus 100 μg/mL streptomycin). Cellular propagation was conducted under standard culture conditions (37 °C, 5% CO2 humidified atmosphere), following established protocols.
To validate whether the bioactive peptides exert toxic effects on cells, the impact of peptide concentrations on cell viability should also be assessed. […] After the treatment period, 10 μL of CCK-8 solution was added, and these 96-well plates were gently shaken and incubated again at 37 °C under 5% CO2 for another 1 h. In the end, the calculation methodology for evaluating the cell viability of bioactive peptides is described in Equation (2) in Section 2.6 to assess the effects of bioactive peptides on cell viability. All blank groups were established using DMEM high-glucose medium devoid of insulin.
On to `CSCC[C@H](NC(=O)CN)C(=O)N[C@@H](CC(=O)O)C(=O)N[C@@H](Cc1ccccc1)C(=O)N[C@@H](CCC(N)=O)C(=O)N1CCC[C@H]1C(=O)N[C@@H](CCCNC(=N)N)C(=O)O` [GR-7] (H-GMDFQPR-OH), for which the “HepG2 cell viability versus blank group” value is “significantly higher than the blank group”.

Turning to `CC(C)C[C@H](NC(=O)[C@@H](N)CO)C(=O)N[C@@H](Cc1ccccc1)C(=O)N[C@@H](CC(C)C)C(=O)N1CCC[C@H]1C(=O)N[C@@H](CCCCN)C(=O)O` [SK-6] (H-SLFLPK-OH), the “HepG2 cell viability versus blank group” value is reported as “significantly higher than the blank group”.

In the case of `CC(C)C[C@H](NC(=O)[C@H](C)NC(=O)[C@H](CC(=O)O)NC(=O)[C@H](Cc1ccccc1)NC(=O)[C@@H]1CCCN1C(=O)[C@@H](N)CC(=O)O)C(=O)N1CCC[C@H]1C(=O)N[C@@H](CCCCN)C(=O)O` [DK-8] (H-DPFDALPK-OH), the “HepG2 cell viability versus blank group” value is “significantly higher than the blank group”.

For the next data set, the target named is T1, DPP-IV (Homo sapiens, UniProt P27487).
T1 construct: purchased Abcam (Cambridge, UK)
T1 sequence (P27487 whole entry): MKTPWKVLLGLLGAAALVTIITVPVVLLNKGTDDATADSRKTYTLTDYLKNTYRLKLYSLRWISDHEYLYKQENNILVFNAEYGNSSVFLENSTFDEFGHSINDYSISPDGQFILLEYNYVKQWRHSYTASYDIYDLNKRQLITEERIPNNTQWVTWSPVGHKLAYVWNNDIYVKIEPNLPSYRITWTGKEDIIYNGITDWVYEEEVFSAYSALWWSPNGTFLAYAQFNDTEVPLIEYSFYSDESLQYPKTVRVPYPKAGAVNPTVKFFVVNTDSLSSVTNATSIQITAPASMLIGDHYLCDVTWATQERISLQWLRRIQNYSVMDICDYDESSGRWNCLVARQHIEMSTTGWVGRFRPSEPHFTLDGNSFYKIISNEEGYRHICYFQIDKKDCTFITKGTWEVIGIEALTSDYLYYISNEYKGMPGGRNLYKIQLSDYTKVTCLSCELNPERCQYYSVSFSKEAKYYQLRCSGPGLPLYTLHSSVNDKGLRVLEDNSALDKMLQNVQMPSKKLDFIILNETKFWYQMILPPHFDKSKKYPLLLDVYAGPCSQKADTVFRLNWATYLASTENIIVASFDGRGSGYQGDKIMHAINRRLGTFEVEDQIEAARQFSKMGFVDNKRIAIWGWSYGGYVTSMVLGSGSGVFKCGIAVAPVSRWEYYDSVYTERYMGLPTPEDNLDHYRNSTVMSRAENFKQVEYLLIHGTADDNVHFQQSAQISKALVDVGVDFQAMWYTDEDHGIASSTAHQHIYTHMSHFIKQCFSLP
Put plainly: DPP-IV inhibitor screening assay (commercial kit, Abcam). The format is biochemical. As to conditions: IC50 from DPP-IV inhibition rates, '-' = no IC50 given (only three peptides showed inhibitory effects against DPP-IV). Here is the method: Subsequently, the screening assay was conducted using a commercial kit (Abcam, Cambridge, UK) following the protocols provided by the manufacturer. The half-maximal inhibitory concentration (IC50) was determined through analysis of DPP-IV inhibition rates, applying the formula outlined in Equation (2):(2) DPP-IV inhibition rate (%) = [(ABlank − ASample)/ABlank] × 100 where A represents the absorbance value.
For `NCCCC[C@H](NC(=O)[C@H](Cc1ccccc1)NC(=O)[C@@H]1CCCN1C(=O)[C@@H]1CCCN1C(=O)CNC(=O)[C@H](Cc1ccc(O)cc1)NC(=O)[C@@H](N)CC(=O)O)C(=O)O` [DK-7] (H-DYGPPFK-OH), the IC50 (usually the point on the concentration scale where inhibition reaches its midpoint) is > 12.2 mM.

For `CC(C)C[C@H](NC(=O)[C@H](CC(=O)O)NC(=O)[C@H](Cc1ccccc1)NC(=O)[C@@H]1CCCN1C(=O)[C@H](CC(N)=O)NC(=O)[C@@H](N)Cc1ccccc1)C(=O)N[C@H](C(=O)N[C@@H](CCCCN)C(=O)O)[C@@H](C)O` [FK-8] (H-FNPFDLTK-OH), the IC50 is > 10.2 mM.

Take `CC(C)C[C@H](NC(=O)[C@@H](N)CO)C(=O)N[C@@H](Cc1ccccc1)C(=O)N[C@@H](CC(C)C)C(=O)N1CCC[C@H]1C(=O)N[C@@H](CCCCN)C(=O)O` [SK-6] (H-SLFLPK-OH): the IC50 is > 14.2 mM.

The values are drawn from publication PMC12785325, “Edible Yellow Mealworm-Derived Antidiabetic Peptides: Dual Modulation of α-Glucosidase and Dipeptidyl-Peptidase IV Inhibition Revealed by Integrated Proteomics, Bioassays, and Molecular Docking Analysis” (Foods, 2025).
